Measured values: the NIST ThermoML archive (doi:10.1016/j.jct.2008.02.016)
Numbers after ± are expanded uncertainties.

Details: Liquid

Compound	vapor or sublimation pressure (303.15 K)	vapor or sublimation pressure (313.15 K)	vapor or sublimation pressure (323.15 K)
CCCCCC [hexane]	25.01 ± 0.37 kPa	37.54 ± 0.53 kPa	54.39 ± 0.74 kPa
CCCCCCC [heptane]	7.87 ± 0.16 kPa	12.33 ± 0.22 kPa	18.95 ± 0.3 kPa
